# Measured values taken from article PMC7156458, “Synthetic biology based construction of biological activity-related library of fungal decalin-containing diterpenoid pyrones” (Nature Communications, 2020).
# Biological target: Aβ42 (Homo sapiens, UniProt P05067)
# Test: Th-T (thioflavin-T) assay of Aβ42 aggregation
# Type: biochemical
# Settings: for Th-T assay plate reading, mean of three wells (Supplementary Fig. 47): source data, Ab alone and No Ab as controls
# Sequence of Aβ42 (P05067 672-713): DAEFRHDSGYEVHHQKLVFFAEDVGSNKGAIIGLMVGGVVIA
smiles,measurement,setting,value
C=C1CCC2C(C)(CC(=O)C=C(C)C)C(O)CCC2(C)C1Cc1c(OC)oc(CO)c(C)c1=O (centres unmarked) [Compound 19],"Th-T fluorescence, mean of three wells","Aβ42 aggregation time course, reading M117",3.6075
same,"Th-T fluorescence, mean of three wells","Aβ42 aggregation time course, reading M118",3.626
same,"Th-T fluorescence, mean of three wells","Aβ42 aggregation time course, reading M119",3.587
same,"Th-T fluorescence, mean of three wells","Aβ42 aggregation time course, reading M120",3.625
same,"Th-T fluorescence, mean of three wells","Aβ42 aggregation time course, reading M121",3.6213
same,"Th-T fluorescence, mean of three wells","Aβ42 aggregation time course, reading M122",3.6222
same,"Th-T fluorescence, mean of three wells","Aβ42 aggregation time course, reading M123",3.606
same,"Th-T fluorescence, mean of three wells","Aβ42 aggregation time course, reading M124",3.5846
same,"Th-T fluorescence, mean of three wells","Aβ42 aggregation time course, reading M125",3.61
same,"Th-T fluorescence, mean of three wells","Aβ42 aggregation time course, reading M126",3.596
same,"Th-T fluorescence, mean of three wells","Aβ42 aggregation time course, reading M127",3.587
same,"Th-T fluorescence, mean of three wells","Aβ42 aggregation time course, reading M128",3.613
same,"Th-T fluorescence, mean of three wells","Aβ42 aggregation time course, reading M129",3.627
same,"Th-T fluorescence, mean of three wells","Aβ42 aggregation time course, reading M130",3.59
same,"Th-T fluorescence, mean of three wells","Aβ42 aggregation time course, reading M131",3.596
same,"Th-T fluorescence, mean of three wells","Aβ42 aggregation time course, reading M132",3.652
same,"Th-T fluorescence, mean of three wells","Aβ42 aggregation time course, reading M133",3.618
same,"Th-T fluorescence, mean of three wells","Aβ42 aggregation time course, reading M134",3.586
same,"Th-T fluorescence, mean of three wells","Aβ42 aggregation time course, reading M135",3.587
same,"Th-T fluorescence, mean of three wells","Aβ42 aggregation time course, reading M136",3.617
same,"Th-T fluorescence, mean of three wells","Supplementary Fig. 47, reading M137",3.599
same,"Th-T fluorescence, mean of three wells","Supplementary Fig. 47, reading M138",3.596
same,"Th-T fluorescence, mean of three wells","Supplementary Fig. 47, reading M139",3.59
same,"Th-T fluorescence, mean of three wells","Supplementary Fig. 47, reading M140",3.5958
same,"Th-T fluorescence, mean of three wells","Supplementary Fig. 47, reading M141",3.577
same,"Th-T fluorescence, mean of three wells","Supplementary Fig. 47, reading M142",3.567
same,"Th-T fluorescence, mean of three wells","Supplementary Fig. 47, reading M143",3.559
same,"Th-T fluorescence, mean of three wells","Supplementary Fig. 47, reading M144",3.573
same,"Th-T fluorescence, mean of three wells","Supplementary Fig. 47, reading M145",3.546
same,"Th-T fluorescence, mean of three wells","Supplementary Fig. 47 source data, measurement M37 of time course",3.411
same,"Th-T fluorescence, mean of three wells","Supplementary Fig. 47 source data, measurement M38 of time course",3.42
same,"Th-T fluorescence, mean of three wells","Supplementary Fig. 47 source data, measurement M39 of time course",3.449
same,"Th-T fluorescence, mean of three wells","Supplementary Fig. 47 source data, measurement M40 of time course",3.484
same,"Th-T fluorescence, mean of three wells","Supplementary Fig. 47 source data, measurement M41 of time course",3.495
same,"Th-T fluorescence, mean of three wells","Supplementary Fig. 47 source data, measurement M42 of time course",3.511
same,"Th-T fluorescence, mean of three wells","Supplementary Fig. 47 source data, measurement M43 of time course",3.5042
same,"Th-T fluorescence, mean of three wells","Supplementary Fig. 47 source data, measurement M44 of time course",3.529
same,"Th-T fluorescence, mean of three wells","Supplementary Fig. 47 source data, measurement M45 of time course",3.546
same,"Th-T fluorescence, mean of three wells","Supplementary Fig. 47 source data, measurement M46 of time course",3.545
same,"Th-T fluorescence, mean of three wells","Supplementary Fig. 47 source data, measurement M47 of time course",3.542
same,"Th-T fluorescence, mean of three wells","Supplementary Fig. 47 source data, measurement M48 of time course",3.567
same,"Th-T fluorescence, mean of three wells","Supplementary Fig. 47 source data, measurement M49 of time course",3.564
same,"Th-T fluorescence, mean of three wells","Supplementary Fig. 47 source data, measurement M50 of time course",3.566
same,"Th-T fluorescence, mean of three wells","Supplementary Fig. 47 source data, measurement M51 of time course",3.621
same,"Th-T fluorescence, mean of three wells","Supplementary Fig. 47 source data, measurement M52 of time course",3.57
same,"Th-T fluorescence, mean of three wells","Supplementary Fig. 47 source data, measurement M53 of time course",3.596
same,"Th-T fluorescence, mean of three wells","Supplementary Fig. 47 source data, measurement M54 of time course",3.5732
same,"Th-T fluorescence, mean of three wells","Supplementary Fig. 47 source data, measurement M55 of time course",3.592
same,"Th-T fluorescence, mean of three wells","Supplementary Fig. 47 source data, measurement M56 of time course",3.662
same,"Th-T assay plate reading, mean of three wells (Supplementary Fig. 47)",measurement M1,0.2658
same,"Th-T assay plate reading, mean of three wells (Supplementary Fig. 47)",measurement M2,0.2823
same,"Th-T assay plate reading, mean of three wells (Supplementary Fig. 47)",measurement M3,0.3173
same,"Th-T assay plate reading, mean of three wells (Supplementary Fig. 47)",measurement M4,0.3889
same,"Th-T assay plate reading, mean of three wells (Supplementary Fig. 47)",measurement M5,0.4637
same,"Th-T assay plate reading, mean of three wells (Supplementary Fig. 47)",measurement M6,0.5676
same,"Th-T assay plate reading, mean of three wells (Supplementary Fig. 47)",measurement M7,0.5832
same,"Th-T assay plate reading, mean of three wells (Supplementary Fig. 47)",measurement M8,0.6497
same,"Th-T assay plate reading, mean of three wells (Supplementary Fig. 47)",measurement M9,0.6755
same,"Th-T assay plate reading, mean of three wells (Supplementary Fig. 47)",measurement M10,0.7219
same,"Th-T assay plate reading, mean of three wells (Supplementary Fig. 47)",measurement M11,0.7495
same,"Th-T assay plate reading, mean of three wells (Supplementary Fig. 47)",measurement M12,0.7862
same,"Th-T assay plate reading, mean of three wells (Supplementary Fig. 47)",measurement M13,0.8322
same,"Th-T assay plate reading, mean of three wells (Supplementary Fig. 47)",measurement M14,0.8734
same,"Th-T assay plate reading, mean of three wells (Supplementary Fig. 47)",measurement M15,0.9399
same,"Th-T assay plate reading, mean of three wells (Supplementary Fig. 47)",measurement M16,1.015
same,"Th-T fluorescence, mean of three wells","reading M17, Supplementary Fig. 47 source data",1.1695
same,"Th-T fluorescence, mean of three wells","reading M18, Supplementary Fig. 47 source data",1.449
same,"Th-T fluorescence, mean of three wells","reading M19, Supplementary Fig. 47 source data",1.7884
same,"Th-T fluorescence, mean of three wells","reading M20, Supplementary Fig. 47 source data",2.128
same,"Th-T fluorescence, mean of three wells","reading M21, Supplementary Fig. 47 source data",2.459
same,"Th-T fluorescence, mean of three wells","reading M22, Supplementary Fig. 47 source data",2.644
same,"Th-T fluorescence, mean of three wells","reading M23, Supplementary Fig. 47 source data",2.778
same,"Th-T fluorescence, mean of three wells","reading M24, Supplementary Fig. 47 source data",2.868
same,"Th-T fluorescence, mean of three wells","reading M25, Supplementary Fig. 47 source data",2.94
same,"Th-T fluorescence, mean of three wells","reading M26, Supplementary Fig. 47 source data",3.016
same,"Th-T fluorescence, mean of three wells","reading M27, Supplementary Fig. 47 source data",3.079
same,"Th-T fluorescence, mean of three wells","reading M28, Supplementary Fig. 47 source data",3.14
same,"Th-T fluorescence, mean of three wells","reading M29, Supplementary Fig. 47 source data",3.171
same,"Th-T fluorescence, mean of three wells","reading M30, Supplementary Fig. 47 source data",3.2173
same,"Th-T fluorescence, mean of three wells","reading M31, Supplementary Fig. 47 source data",3.256
same,"Th-T fluorescence, mean of three wells","reading M32, Supplementary Fig. 47 source data",3.313
same,"Th-T fluorescence, mean of three wells","reading M33, Supplementary Fig. 47 source data",3.3097
same,"Th-T fluorescence, mean of three wells","reading M34, Supplementary Fig. 47 source data",3.333
same,"Th-T fluorescence, mean of three wells","reading M35, Supplementary Fig. 47 source data",3.364
same,"Th-T fluorescence, mean of three wells","reading M36, Supplementary Fig. 47 source data",3.374
same,"Th-T fluorescence, mean of three wells","time course, reading M57",3.606
same,"Th-T fluorescence, mean of three wells","time course, reading M58",3.638
same,"Th-T fluorescence, mean of three wells","time course, reading M59",3.598
same,"Th-T fluorescence, mean of three wells","time course, reading M60",3.6035
same,"Th-T fluorescence, mean of three wells","time course, reading M61",3.616
same,"Th-T fluorescence, mean of three wells","time course, reading M62",3.642
same,"Th-T fluorescence, mean of three wells","time course, reading M63",3.645
same,"Th-T fluorescence, mean of three wells","time course, reading M64",3.635
same,"Th-T fluorescence, mean of three wells","time course, reading M65",3.622
same,"Th-T fluorescence, mean of three wells","time course, reading M66",3.629
same,"Th-T fluorescence, mean of three wells","time course, reading M67",3.626
same,"Th-T fluorescence, mean of three wells","time-course reading M97, Supplementary Fig. 47 source data",3.5997
same,"Th-T fluorescence, mean of three wells","time-course reading M98, Supplementary Fig. 47 source data",3.623
same,"Th-T fluorescence, mean of three wells","time-course reading M99, Supplementary Fig. 47 source data",3.625
same,"Th-T fluorescence, mean of three wells","time-course reading M100, Supplementary Fig. 47 source data",3.601
same,"Th-T fluorescence, mean of three wells","time-course reading M101, Supplementary Fig. 47 source data",3.5892
same,"Th-T fluorescence, mean of three wells","time-course reading M102, Supplementary Fig. 47 source data",3.633
same,"Th-T fluorescence, mean of three wells","time-course reading M103, Supplementary Fig. 47 source data",3.645
same,"Th-T fluorescence, mean of three wells","time-course reading M104, Supplementary Fig. 47 source data",3.661
same,"Th-T fluorescence, mean of three wells","time-course reading M105, Supplementary Fig. 47 source data",3.626
same,"Th-T fluorescence, mean of three wells","time-course reading M106, Supplementary Fig. 47 source data",3.655
same,"Th-T fluorescence, mean of three wells","time-course reading M107, Supplementary Fig. 47 source data",3.608
same,"Th-T fluorescence, mean of three wells","time-course reading M108, Supplementary Fig. 47 source data",3.642
same,"Th-T fluorescence, mean of three wells","time-course reading M109, Supplementary Fig. 47 source data",3.6107
same,"Th-T fluorescence, mean of three wells","time-course reading M110, Supplementary Fig. 47 source data",3.642
same,"Th-T fluorescence, mean of three wells","time-course reading M111, Supplementary Fig. 47 source data",3.621
same,"Th-T fluorescence, mean of three wells","time-course reading M112, Supplementary Fig. 47 source data",3.604
same,"Th-T fluorescence, mean of three wells","time-course reading M113, Supplementary Fig. 47 source data",3.595
same,"Th-T fluorescence, mean of three wells","time-course reading M114, Supplementary Fig. 47 source data",3.63
same,"Th-T fluorescence, mean of three wells","time-course reading M115, Supplementary Fig. 47 source data",3.6287
same,"Th-T fluorescence, mean of three wells","time-course reading M116, Supplementary Fig. 47 source data",3.617
